Test results taken from patent publication US4510150A, “Pharmaceutical compositions effective against coronary heart disease and hypertension” (Sandoz Ltd., priority 1980, dated 1985).

How the values were obtained:
β-adrenoceptor = assay: adequacy of betablockade checked with isoproterenol test dose in the anaesthetized open chest cat; assay type: in vivo; conditions: LT 50 μg/kg i.v.; isoproterenol 0.05 μg/kg before, 0.1 μg/kg after betablockade
Protocol: Cats of 2 to 4 kg of body weight were anaesthetized with chloralose urethane (43 and 430 mg/kg) and ventilated with a Loosco M.K.II infant ventilator with positive end-expiratory pressure. Catheters were inserted into the femoral artery and vein. The thorax was opened through the left fourth intercostal space, the aorta was freed of its adventitia and an electromagnetic flow probe was placed around it. The electromagnetic flow signal and its first derivative, acceleration of the blood in the aorta, mean aortic flow, phasic and mean aortic blood pressure, heart rate and mean right atrial pressure were recorded on a Beckmann R612 8 channel recorder. For flow measurements a Narco RT500 flowmeter was used. Differentiation was performed by a HSE 401 differentiator. The flow signal, which is a measurement of the velocity of blood in the aortic root was electronically integrated to obtain mean aortic flow. At the same time this signal was fed into the differentiator mentioned. The output of the differentiator, acceleration of blood in the aorta, is an indicator of myocardial function and was used instead of dp/dt (R. R. Rushmer, Circulation 29 [1964] 268, G. C. Van den Bos et al., Cardiovascular Research 7 [1973] 834), applied to cats by R. P. Hof and A. Hof, Journal of Pharmacological Methods, accepted for publication in 1981. […] The samples were counted in a Packard Mod. […]

[1] = tested on: anaesthetized open chest cat; assay: hemodynamics in the anaesthetized open chest cat (microsphere method); assay type: in vivo
Protocol: This observation was arrived at in the anaesthetized open chest cat as follows:
The microsphere method as described in 1967 by Rudolph, A. M. and Heymann, M. S. in Circ. Res. 21 (1967) 163 and modified by R. P. Hof, F. Wyler and G. Stalder, Basic Res. Cardial. 75, 747-756 (1980) was used. Cardiac output was calculated from the flow signal of an electromagnetic flow meter. […] This consists in sampling blood at a known flow rate into a syringe, which can be regarded as "an external organ".
This sampling is done during the time of microsphere circulation. The number of microspheres in the syringe is then determined and cardiac output can be calculated as follows:
where CO is cardiac output, Qs is flow to the syringe, Ni is the number of spheres injected and Ns is the number of spheres in the syringe.
Cats of 2 to 4 kg of body weight were anaesthetized with chloralose urethane (43 and 430 mg/kg) and ventilated with a Loosco M.K.II infant ventilator with positive end-expiratory pressure. Catheters were inserted into the femoral artery and vein. […] The electromagnetic flow signal and its first derivative, acceleration of the blood in the aorta, mean aortic flow, phasic and mean aortic blood pressure, heart rate and mean right atrial pressure were recorded on a Beckmann R612 8 channel recorder. […] The samples were counted in a Packard Mod. […]

[2] = biological target: T1, calcium-induced contraction of isolated dog coronary arteries (Canis lupus familiaris, UniProt A0A8I3QY31); assay: calcium antagonism: calcium-induced contraction of isolated dog coronary arteries in depolarizing solution; assay type: cell-based; conditions: helical strips of dog coronary artery, 100 mM KCl solution, cumulative CaCl2 response curves, drug added 30 min before CaCl2; read-out: pA2 of calcium antagonism (converted)
T1 construct: Branches of the ventral interventricular artery (about 500 to 1000 μm outer diameter) were dissected and cut into helical strips; from tissue; host or cells: helical strips of branches of the ventral interventricular (coronary) artery of mongrel dogs
Protocol: First the potency of calcium antagonism was determined on coronary arteries in vitro:
Mongrel dogs of either sex weighing between 15 and 30 kg were anaesthetized by rapid i.v. injection of pentobarbitone (50 mg/kg) and killed by i.v. injection of 100 ml of air. The heart was removed and placed in a modified Krebs-Henseleit solution (mM): NaCl 118, KCl 4.7, MgSo4 1.2, CaCl2 2.5, KH2 PO4 1.2, NaHCO3 25, glucose 11, at 37° C., gassed with 95% O2 -5% CO2. Branches of the ventral interventricular artery (about 500 to 1000 μm outer diameter) were dissected and cut into helical strips, approximately 1 to 3 mm wide and 10 mm long.
The strips were suspended in 10 ml organ baths containing Krebs-Henseleit solution at 37° C. gassed continuously with 5% CO2 in oxygen. Changes in the tension of the strips were recorded isometrically with electromechanical transducers (Statham model UC 3) and a potentiometric recorder. At the beginning of the experiments the strips were stretched to an initial tension of 500 mg and then allowed to equilibrate for 120 to 180 minutes in the bathing medium. Thereafter the Krebs-Henseleit solution was replaced by a solution containing 100 mM KCl in equimolar replacement for NaCl. Cumulative response curves for CaCl2 were established, using the method described by Van Rossum, J. M., Arch. […] The effects were expressed as percentage of the preceding response to […]. […]

[3] = biological target: T2, paced guinea pig left atrium (Cavia porcellus, UniProt O35505); assay: contractility of paced guinea pig left atria in vitro; assay type: cell-based; conditions: guinea pig; highest dose 0.444 μM; paced 1 Hz, 30° C.; read-out: contractile force, % of its baseline value
T2 construct: the left atrium was rapidly dissected from the heart and suspended in a modified oxygenated Tyrode solution; from tissue; host or cells: isolated left atrium of guinea pig
Protocol: (§1) Then the effects on contractility of paced guinea pig left […] in vitro was measured:
(§2) Guinea pigs of either sex weighing 250 to 400 g were killed by a blow on their heads and the left atrium was rapidly dissected from the heart and suspended in a modified oxygenated Tyrode solution at 30° C. The preload was adjusted to 1 g, rectangular impulses of 10 msec. at a rate of 1 Hz were used for pacing through a platinum cathode attached to the lower end of the tissue. The tension developed was measured isometrically with a Statham UC 3 transducer.

[4] = tested on: paced guinea pig left atrium; assay: as above; assay type: cell-based; conditions: for difference between cardiodepressant concentration and the pA2 of Ca-antagonism: guinea pig atria concentration vs dog coronary artery pA2
Protocol: as §1, §2

T1 sequence (A0A8I3QY31 1-2188): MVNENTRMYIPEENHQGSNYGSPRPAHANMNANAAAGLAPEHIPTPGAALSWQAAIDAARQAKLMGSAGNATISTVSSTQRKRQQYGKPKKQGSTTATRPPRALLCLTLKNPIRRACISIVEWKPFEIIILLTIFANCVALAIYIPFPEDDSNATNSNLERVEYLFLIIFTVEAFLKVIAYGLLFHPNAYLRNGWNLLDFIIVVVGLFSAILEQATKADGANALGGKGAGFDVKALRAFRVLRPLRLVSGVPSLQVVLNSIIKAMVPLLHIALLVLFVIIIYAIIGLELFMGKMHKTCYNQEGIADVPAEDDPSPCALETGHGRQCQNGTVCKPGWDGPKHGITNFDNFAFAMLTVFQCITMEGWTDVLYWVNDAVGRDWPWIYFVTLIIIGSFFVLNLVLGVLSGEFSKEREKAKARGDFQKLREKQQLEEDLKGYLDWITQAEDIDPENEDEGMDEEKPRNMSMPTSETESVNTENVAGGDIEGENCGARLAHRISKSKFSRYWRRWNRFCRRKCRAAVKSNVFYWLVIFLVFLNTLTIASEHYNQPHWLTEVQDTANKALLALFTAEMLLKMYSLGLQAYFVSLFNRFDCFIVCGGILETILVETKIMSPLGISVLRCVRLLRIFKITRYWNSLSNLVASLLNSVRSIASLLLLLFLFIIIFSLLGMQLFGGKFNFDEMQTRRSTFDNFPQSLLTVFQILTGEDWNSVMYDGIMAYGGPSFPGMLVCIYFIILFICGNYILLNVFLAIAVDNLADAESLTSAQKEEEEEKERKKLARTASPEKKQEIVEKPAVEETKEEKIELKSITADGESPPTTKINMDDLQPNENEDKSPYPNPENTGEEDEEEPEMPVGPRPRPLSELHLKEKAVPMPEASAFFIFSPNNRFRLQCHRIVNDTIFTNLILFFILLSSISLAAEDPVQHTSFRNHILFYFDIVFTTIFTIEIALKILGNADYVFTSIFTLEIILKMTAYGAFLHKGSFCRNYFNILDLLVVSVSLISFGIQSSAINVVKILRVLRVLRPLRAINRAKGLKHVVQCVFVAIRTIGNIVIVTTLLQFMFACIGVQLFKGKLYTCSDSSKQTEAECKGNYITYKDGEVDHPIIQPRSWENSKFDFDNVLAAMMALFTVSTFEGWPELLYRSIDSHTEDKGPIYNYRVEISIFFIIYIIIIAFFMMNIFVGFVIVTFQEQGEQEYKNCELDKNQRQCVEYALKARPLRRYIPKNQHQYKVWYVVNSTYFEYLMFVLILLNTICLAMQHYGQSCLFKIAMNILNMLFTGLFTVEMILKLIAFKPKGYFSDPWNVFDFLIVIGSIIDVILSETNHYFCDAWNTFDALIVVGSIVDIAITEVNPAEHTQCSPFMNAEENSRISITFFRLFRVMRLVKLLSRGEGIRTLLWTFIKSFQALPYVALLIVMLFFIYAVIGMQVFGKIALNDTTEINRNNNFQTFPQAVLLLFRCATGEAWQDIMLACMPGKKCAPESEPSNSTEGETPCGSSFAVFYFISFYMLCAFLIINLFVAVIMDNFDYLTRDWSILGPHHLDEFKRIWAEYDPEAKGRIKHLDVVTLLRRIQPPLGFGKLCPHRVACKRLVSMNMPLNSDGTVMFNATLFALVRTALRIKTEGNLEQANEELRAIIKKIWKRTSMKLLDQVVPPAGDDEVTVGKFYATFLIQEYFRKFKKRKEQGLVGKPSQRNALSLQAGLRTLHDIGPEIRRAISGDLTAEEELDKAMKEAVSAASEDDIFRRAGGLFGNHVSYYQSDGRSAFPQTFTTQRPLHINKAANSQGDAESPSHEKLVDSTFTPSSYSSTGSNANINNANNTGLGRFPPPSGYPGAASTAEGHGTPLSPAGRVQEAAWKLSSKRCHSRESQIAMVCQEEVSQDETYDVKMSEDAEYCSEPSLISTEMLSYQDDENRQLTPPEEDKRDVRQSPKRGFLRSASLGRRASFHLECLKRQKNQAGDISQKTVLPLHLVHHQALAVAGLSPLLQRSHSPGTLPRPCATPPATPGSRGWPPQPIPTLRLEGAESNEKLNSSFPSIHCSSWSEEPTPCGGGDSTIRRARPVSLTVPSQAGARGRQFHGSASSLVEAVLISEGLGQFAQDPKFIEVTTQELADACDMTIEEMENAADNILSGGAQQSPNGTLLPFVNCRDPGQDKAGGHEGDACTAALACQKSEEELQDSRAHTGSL
T2 sequence (O35505 whole entry): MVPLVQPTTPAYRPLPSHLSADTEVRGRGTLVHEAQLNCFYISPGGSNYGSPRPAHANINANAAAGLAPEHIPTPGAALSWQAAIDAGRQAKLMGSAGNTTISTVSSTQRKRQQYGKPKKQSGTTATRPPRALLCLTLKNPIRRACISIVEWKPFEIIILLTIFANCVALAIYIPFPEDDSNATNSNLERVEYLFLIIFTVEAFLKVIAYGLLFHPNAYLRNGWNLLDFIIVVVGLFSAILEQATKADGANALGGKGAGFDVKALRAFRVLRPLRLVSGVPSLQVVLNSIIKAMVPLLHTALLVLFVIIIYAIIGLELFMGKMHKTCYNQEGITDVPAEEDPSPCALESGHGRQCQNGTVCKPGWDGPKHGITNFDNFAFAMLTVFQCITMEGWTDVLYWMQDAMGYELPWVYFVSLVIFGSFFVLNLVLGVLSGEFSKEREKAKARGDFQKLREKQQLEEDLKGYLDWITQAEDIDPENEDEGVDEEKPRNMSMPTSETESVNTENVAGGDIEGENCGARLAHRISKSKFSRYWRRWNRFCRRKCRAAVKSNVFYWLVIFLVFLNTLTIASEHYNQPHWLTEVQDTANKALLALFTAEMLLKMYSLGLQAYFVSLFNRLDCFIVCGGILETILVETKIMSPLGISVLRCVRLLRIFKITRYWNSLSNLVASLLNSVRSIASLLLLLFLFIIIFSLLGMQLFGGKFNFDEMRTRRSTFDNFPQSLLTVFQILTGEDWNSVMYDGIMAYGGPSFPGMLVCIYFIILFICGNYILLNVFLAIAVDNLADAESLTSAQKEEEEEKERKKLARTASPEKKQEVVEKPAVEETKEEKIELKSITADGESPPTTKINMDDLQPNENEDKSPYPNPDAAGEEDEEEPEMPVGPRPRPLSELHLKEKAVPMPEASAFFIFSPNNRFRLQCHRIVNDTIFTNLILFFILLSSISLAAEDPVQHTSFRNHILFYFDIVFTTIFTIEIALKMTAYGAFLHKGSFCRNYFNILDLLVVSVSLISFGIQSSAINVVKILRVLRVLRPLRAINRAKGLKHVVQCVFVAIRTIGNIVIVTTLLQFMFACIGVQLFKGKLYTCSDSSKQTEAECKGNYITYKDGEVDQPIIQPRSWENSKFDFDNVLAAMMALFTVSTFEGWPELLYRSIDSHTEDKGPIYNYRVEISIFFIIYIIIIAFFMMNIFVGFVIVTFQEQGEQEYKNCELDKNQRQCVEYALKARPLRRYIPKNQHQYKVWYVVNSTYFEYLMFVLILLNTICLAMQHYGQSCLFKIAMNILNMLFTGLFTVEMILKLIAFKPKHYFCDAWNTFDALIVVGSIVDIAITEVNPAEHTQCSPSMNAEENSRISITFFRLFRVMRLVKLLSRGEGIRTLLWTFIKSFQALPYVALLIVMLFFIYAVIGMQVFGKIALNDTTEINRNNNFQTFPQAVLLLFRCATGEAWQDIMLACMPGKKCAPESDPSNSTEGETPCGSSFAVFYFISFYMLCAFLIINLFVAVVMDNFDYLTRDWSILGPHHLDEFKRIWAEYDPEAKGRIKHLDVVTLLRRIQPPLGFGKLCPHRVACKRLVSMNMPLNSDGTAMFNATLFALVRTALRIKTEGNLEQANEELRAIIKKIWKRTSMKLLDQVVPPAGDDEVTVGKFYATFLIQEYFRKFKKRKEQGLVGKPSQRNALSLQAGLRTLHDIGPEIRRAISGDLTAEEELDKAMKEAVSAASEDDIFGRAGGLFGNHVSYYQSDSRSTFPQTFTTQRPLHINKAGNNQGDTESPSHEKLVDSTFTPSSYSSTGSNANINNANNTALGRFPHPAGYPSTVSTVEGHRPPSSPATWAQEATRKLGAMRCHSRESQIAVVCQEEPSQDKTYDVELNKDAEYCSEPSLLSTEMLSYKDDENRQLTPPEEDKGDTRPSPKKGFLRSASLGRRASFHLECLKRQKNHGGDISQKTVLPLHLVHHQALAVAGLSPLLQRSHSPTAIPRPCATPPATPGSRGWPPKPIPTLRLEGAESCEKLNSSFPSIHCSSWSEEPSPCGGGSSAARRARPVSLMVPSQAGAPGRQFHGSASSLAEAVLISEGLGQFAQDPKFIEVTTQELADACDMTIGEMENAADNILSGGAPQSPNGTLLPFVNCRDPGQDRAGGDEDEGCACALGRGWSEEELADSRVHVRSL

Row | Compound | suppression of isoproterenol effects (β-adrenoceptor) | coronary blood flow ([1]; 43 μg/kg i.v., no pretreatment) | general hemodynamic parameters (acceleration of blood, cardiac output, heart rate, coronary flow) after β-blocker pretreatment ([1]; compound No. 22 43 μg/kg i.v., 60 minutes after LT 50 μg/kg i.v.) | Kb [2] [nM] | activity at 0.444 µM [3] [%] | difference between cardiodepressant concentration and the pA2 of Ca-antagonism [4] | times less cardiodepressant than Verapamil for a similar degree of calcium antagonism ([4]; relative to Verapamil)
1 | Cc1cc2c(OCC(CNC(C)(C)C)OC(=O)c3ccccc3)cccc2[nH]1 (stereo not drawn) [LT, 4-(2-benzoyloxy-3-tert-butylaminopropoxy)-2-methylindole] | completely or almost completely suppressed | – | – | – | – | – | –
2 | CCOC(=O)C1=C(C)NC(C)=C(C(=O)OCC)C1c1cccc2nonc12 [compound No. 22] | – | markedly increased | strikingly similar to those without pretreatment | 0.0316 | 56 | about 10,000 fold | about 100 times
3 | COc1ccc(CCN(C)CCCC(C#N)(c2ccc(OC)c(OC)c2)C(C)C)cc1OC (stereo not drawn) [Verapamil, reference compound] | – | – | – | 15.8 | – | about 100 fold | –
